Experimental data taken from US20080288176A1 (priority 2005, published 2008).
Read-outs that look alike come from different tables or passages of the source. Values belong to the compound of their own block, whether it stands above or below them.

Legend:
[1] = Enzymatic hydrolysis in intestinal microsomal preparations (LC-MS); type: in vitro ADME; conditions: after 2 hours
Method: (§1) The sensitivity of the prodrug 3 towards enzymatic hydrolysis was evaluated by LC-MS. Liver and intestinal microsomal preparations were used. […] However, these rates were slower than the enzymatic hydrolysis rates determined for the conversion of 1→4 and 2→5 (complete hydrolysis observed in 10 and 30 minutes respectively in liver microsomal preparations).

[2] = Chemical stability (loss of diazeniumdiolate) in phosphate buffer; type: physicochemical
Method: They varied only in the nitrogen substituent of the amino acid, i.e. free amine (1), acetyl (2) and pivaloyl (3) groups. Their chemical stability was evaluated in phosphate buffer at different pH's over a 30 minute period (Table 11).

[3] = Enzymatic hydrolysis in liver microsomal preparations (LC-MS); type: in vitro ADME; conditions: liver microsomal preparations
Method: as §1

[4] = Hydrolysis in human intestinal microsomes; type: in vitro ADME
Text: (§2) The physiologically based pharmacokinetic/pharmacodynamic model of the present invention contains a series of compartments that describe the time course of a nonsteroidal anti-inflammatory prodrug, its active metabolites and nitric oxide release in intestine, liver, kidneys, blood/plasma and heart after prodrug administration. The time course of the prodrug, its active metabolites and nitric oxide release can be simulated using a series of in vitro and in silico inputs. The stability of each component in the gastrointestinal lumen is estimated using data collected from artificial gastric and intestinal juice. Intestinal metabolism is estimated using intestinal microsomes and absorption rate is estimated using permeability data collected from a cell monolayer such as Caco-2. Hepatic elimination is estimated using liver microsomes and stability in plasma is calculated using degradation of each component in the media. Plasma protein binding can either be measured using a standardized in vitro method or it can be estimated using an in silico method. The distribution of each component in various parts of the body is estimated using an in silico method. The rate of nitric oxide release is estimated using an in vitro endothelial cell model. The time course of prodrug, its active metabolites and nitric oxide can be simulated in human and animal using this physiologically based pharmacokinetic/pharmacodynamic model provided that the corresponding in vitro and in silico data are used as inputs.
The selection of in vitro tests is designed to provide parameters for the above mentioned model. The use of an inappropriate test would result in wrong predictions. For example, Knaus et al. (2005) used guinea pig serum and porcine esterases to hydrolyze their O^2-substituted diazeniumdiolate derivatives of ASPIRIN, as disclosed in U.S. Ser. No. 60/681,842. These tests provided very little information in terms of in vivo human NO-NSAID metabolism rate and the extent to which metabolic conversion to NO donor and NSAID occurred. […] The half-life values were less than one minute. Based on these observations, it has become apparent that prior to entering the systemic circulation, it is likely that the NO-NSAID would have been hydrolyzed in the enterocytes and little or no NO-NSAID would have been detected in the blood stream. Furthermore, the release of NO will commence immediately once the NO donor is detached from the NSAID.
(§3) Representative in vitro tests or in silico estimates include: (a) pKa estimation or measurement; (b) Log P measurement or in silico estimation; (c) Solubility in various physiological fluids; (d) Permeability. Caco-2 and/or NOVOKIN's proprietary animal and human cell lines can be used to obtain this parameter; (e) Metabolic rate in the intestine and liver. Human or animal intestinal microsomes, S9 fraction, and cytosol can be used for this purpose. Human or animal hepatocytes, liver microsomes, S9 fraction, and cytosol can also be used; (f) Hydrolysis in human or animal plasma; (g) Serum or plasma protein binding. It can be measured in vitro or estimated in silico; (h) The rate of NO release; (i) Existing pharmacokinetic and pharmacodynamic data of NSAID or a biocompatible agent; (j) Existing NO release rate of known diazeniumdiolate if applicable; (k) Stability in gastric and intestinal environment; and (l) In silico volume of distribution estimation.
(§4) Whenever in vitro estimate is attainable, the in vitro results will be used, for example, plasma protein binding. Methods reported by Bowalgaha & Miners (2001), Martignoni et al. (2006), Tong et al. (2001) and Thulesen et al. (1999) were used for in vitro and in vivo scale-up for clearance in the intestine, absorption rate constant and hepatic clearance. The simulation begins with no material in all compartments except for the initial bolus in one compartment (typically the stomach compartment). The simulation then estimates the changing distribution of the material with time.

[5] = Stability in gastric environment (gastric decay rate); type: in vitro ADME
Text: as §2, §3

[6] = Hydrolysis in rat plasma; type: in vitro ADME; conditions: NO-AA formed from the prodrug
Text: as §2, §3

[7] = Hydrolysis in rat intestinal microsomes; type: in vitro ADME
Text: as §2, §3, §4

[8] = Hydrolysis in various enzymatic preparations (rat and human intestinal and liver microsomes)
[9] = Hydrolysis in human liver microsomes; type: in vitro ADME
Text: as §2, with “The” for “The physiologically based pharmacokinetic/pharmacodynamic model of the present invention contains a series of compartments that describe the time course of a nonsteroidal anti-inflammatory prodrug, its active metabolites and nitric oxide release in intestine, liver, kidneys, blood/plasma and heart after prodrug administration. The”
The selection of in vitro tests is designed to provide parameters for the above mentioned model. The use of an inappropriate test would result in wrong predictions.
as §3
The simulation begins with no material in all compartments except for the initial bolus in one compartment (typically the stomach compartment). The simulation then estimates the changing distribution of the material with time.

[10] = Hydrolysis in rat liver microsomes; type: in vitro ADME
Text: as §2, §3, §4

[11] = Stability in intestinal lumen (decay rate); type: in vitro ADME
Text: as §2, §3

[12] = tested on: male Wistar rats; experiment: Urine alanine aminopeptidase to creatinine ratio (proximal tubular kidney damage); type: in vivo, rat; conditions: oral gavage, urine collected for 6 hours
Text: (§5) Myocardial infarction and ischemic events in high risk patients led one of the most popular COX-2 inhibitors to its demise (Bresalier et al., 2005). Non-selective NSAIDS may also cause similar problems due to their ability to inhibit COX-2. […] Adenosine diphosphate (ADP) generation is an indicator of myocardial infarction which has no connection with the arachidonic acid cascade (Borna et al., 2005). […] Long term NSAID use has been linked to kidney damage and hypertension (Zafirovska et al., 1993). […] This was associated with an increase in the urine the ratio of alanine-amino-peptidase (AAP) and creatinine.
(§6) Table 1 is a summary of the protocol for a study which was conducted in male Wistar rats weighing 275-300 grams. The animals were allowed to acclimatize for at least five days prior to the commencement of the study. The study protocol was approved by the local animal ethics committee.
(§7) All test animals, housed in metabolic cages, had urine collected over wet ice for 6 hours after dosing. Aliquots of the urine from each animal were collected to determine creatinine concentration. The remainder of the urine was centrifuged at 1000 g for 10 minutes. The supernatant was collected and mixed with analytical grade ethylene glycol at a rate of 0.4 mL ethylene glycol per 1 mL urine supernatant. The ethylene glycol/urine mixture was stored at −80° C. until analysis.

[13] = tested on: male Wistar rats; experiment: Gastric ulcer index after oral dosing; type: in vivo, rat
Method: as §6
(§8) The animals were fasted overnight prior to test substance administration. The test substance was administered orally by gavage on the morning of the study day. All test animals had blood collected during the test period in both EDTA (ethylenediaminetetraacetic acid) tubes and SST (Serum Separator Tubes) at 1, 3 and 6 hours after dosing. Blood was collected into EDTA tubes only at 1 and 3 hours by tail tip amputation. Volume of blood collected was between 0.5 and 1 mL at each of these collections. The final collection was by puncture of the abdominal vena cava under isoflurane general anesthesia. Final blood collection was targeted as follows: 1st EDTA #1—1.5 mL; 2nd SST—1.5 mL; 3rd EDTA #2—as much as possible.
Each animal from all groups underwent a full necropsy under the supervision of a board certified veterinary pathologist. The stomach of each rat was cut along the greater curvature, contents removed into a polypropylene (Falcon) tube, the mucosa rinsed with saline and any obvious ulcers or erosions were measured along the longest axis. This measurement was recorded for each ulcer or erosion observed in each stomach. The falcon tubes and their contents were frozen at −80° C. and shipped to Novokin on dry ice for analysis.
The aggregate length of all gastric ulcers found in a given animal was calculated. The mean aggregate ulcer length across animals in a group was calculated. This mean value was reported as the ulcer index for that group.
The ulcer index of each modified drug was compared with the ulcer index of its associated parent drug and the controls using analysis of variance and Duncan's multiple range test for pairwise comparisons. Statistical analysis was done using SAS® (SAS Institute Inc., Cary, N.C.).

[14] = Serum nitrate concentration (NO release) after oral dosing; type: in vivo, rat; conditions: male Wistar rats, oral gavage, at 6 hours
Method: as §6, §8
EDTA samples were centrifuged, and the plasma portion was collected and frozen at −80° C. SST samples were incubated at 37° C. for approximately 45 minutes, centrifuged, and the serum was collected and frozen at −80° C. until analysis.

[15] = Human; estimated from Table II - Runkle, 1972; cited from earlier work
[16] = tested on: male Wistar rats; experiment: Urine N-acetylglucosaminidase to creatinine ratio (distal tubule toxicity); type: in vivo, rat; conditions: oral gavage, urine collected for 6 hours
Method: as §6, §7

[17] = Rat; estimated from Table II - Runkle, 1972; cited from earlier work
[18] = tested on: cardiac tissue prostacyclin (PGI2) to thromboxane A2 (TXB2) ratio; experiment: Cardiac tissue prostacyclin to thromboxane ratio; type: in vivo, rat; conditions: male Wistar rats
Text: as §5, §6
All rats were euthanized by removal of the heart 6 hours after initial dosing, following final blood collections. Immediately after terminal blood collections were complete, the thorax was opened and the heart removed. The heart was cut in half longitudinally. Half of the heart was placed in formalin for histological examination. The other half was quickly rinsed in saline and then freeze-clamped (crushed between the jaws of a pair of modified tongs, cooled by liquid nitrogen). An entire kidney was freeze-clamped. The other kidney was left in situ for examination by the pathologist. Freeze-clamped tissues were wrapped in labeled aluminum foil and stored in liquid nitrogen until they could be transferred to a −80° C. freezer. Freeze-clamped tissues were shipped on dry ice to NOVOKIN for analysis.

Conversion to NSAID-amino acid (cleavage of the diazeniumdiolate) [1]: 50% | Stability (loss of diazeniumdiolate), pH 2.5 ([2]; 30 min, pH 2.5): ✓ | Stability (loss of diazeniumdiolate), pH 5.0 ([2]; 30 min, pH 5.0): ✓ | Stability (loss of diazeniumdiolate), pH 7.0 ([2]; 30 min, pH 7.0): ✓ | Chemical stability (in words) ([2]; pH range 2.5-7.0, 30 minute period): stable | Time to complete hydrolysis (cleavage of the diazeniumdiolate) [3]: 2 h
Compound: COc1ccc2cc(C(C)C(=O)OC3CC(C(=O)OCO/N=[N+](\[O-])N(C)C)N(C(=O)C(C)(C)C)C3)ccc2c1 (stereo not shown) [Compound 3]

Compound: COc1ccc2cc(C(C)C(=O)OCOC(=O)C(CCC(=O)OCON=[N+]([O-])N(C)C)NC(=O)C(C)(C)C)ccc2c1 (stereo not shown) [CMD 114]
intestinal molar percent conversion to Naproxen [4]: 78% | intestinal microsomal activity ([4]; model input): 5006 mL/min/organ | gastric decay rate constant ([5]; Human): 0 /mint | gastric decay rate constant ([5]; Rat): 0 /mint | Hydrolysis of the NO-AA in rat plasma (in words) [6]: relatively fast rate | NO-AA half-life in plasma ([6]; Rat): 3.8 min | intestinal molar percent conversion to Naproxen [7]: 42% | intestinal microsomal activity ([7]; model input): 9 mL/min/organ | Stability of the NO-AA formed (in words) ([8]; intestinal and liver microsomes of human and rats): relatively stable | Initial loss of the prodrug candidate (in words) ([8]; various enzymatic preparations): rapid initial loss | liver molar percent conversion to Naproxen [9]: 50% | liver microsomal activity ([9]; model input): 721224 mL/min/organ | liver molar percent conversion to Naproxen [10]: 60% | liver microsomal activity ([10]; model input): 7667 mL/min/organ | intestinal lumen decay rate constant ([11]; Human): 0.67 min⁻¹ | intestinal lumen decay rate constant ([11]; Rat): 0.67 min⁻¹

Compound: COc1ccc2cc([C@H](C)C(=O)O)ccc2c1 [NAP, naproxen]
AAP/Cr (urine alanine aminopeptidase to creatinine), Mean [12]: 263.788 | Ulcer Indices, Mean ([13]; oral gavage, naproxen 250 mg/kg or molar equivalent (ROF 250 mg/kg), 6 h after dosing, mean aggregate gastric ulcer length): 4.282 | Ulcerogenicity (in words) ([13]; oral, 6 h): severely ulcerogenic | Serum Nitrate Concentrations, Mean [14]: 55.167 | liver microsomal activity [15]: 0.0092 mL/min/organ | Urine NAG/Cr values, Mean [16]: 30.865 | liver microsomal activity [17]: 0.0075 mL/min/organ | PGI2 and TXA2 levels (in words) ([18]; cardiac tissue): lowered both PGI2 and TXA2 levels | Cardiac Tissue PGI2/TXB2, Mean ([18]; oral gavage, heart removed 6 hours after dosing): 4.544
